Assay results as given in ChEMBL document CHEMBL1134164, “Antifungal activity of octyl gallate: structural criteria and mode of action” (2001).
In brackets after ≈: the same amount, converted by molar mass. Activity calls are given as the source filed them.

What was measured:
Saccharomyces cerevisiae [1] = test: Minimum fungicidal concentration against Saccharomyces cerevisiae; type: functional
Bacillus subtilis = test: Antimicrobial activity against Bacillus subtilis was determined; type: functional
Staphylococcus aureus [2] = test: Inhibitory activity against Staphylococcus aureus was determined
Streptococcus mutans [3] = test: Antimicrobial activity against Streptococcus mutans was determined; type: functional
Candida albicans [4] = test: Antifungicidal activity against Candida albicans was determined; type: functional
Aspergillus niger [5] = test: Antifungicidal activity against Aspergillus niger was determined; type: functional
[6] = system: Corynebacterium ammoniagenes; test: Inhibitory activity against Brevibacterium ammoniagenes was determined
Cutibacterium acnes [7] = test: Inhibitory activity against Propionibacterium acnes was determined; type: functional
Staphylococcus aureus [8] = test: Antimicrobial activity against Staphylococcus aureus was determined; type: functional
Escherichia coli [9] = test: Inhibitory activity against Escherichia coli was determined
Pseudomonas aeruginosa [10] = test: Antimicrobial activity against Pseudomonas aeruginosa was determined; type: functional
Staphylococcus aureus [11] = test: Antimicrobial activity against Staphylococcus aureus (MRSA) was determined; type: functional
Micrococcus luteus [12] = test: Antimicrobial activity against Micrococcus luteus was determined; type: functional
Klebsiella aerogenes [13] = test: Antimicrobial activity against Enterobacter aerogenes was determined; type: functional
[14] = system: Corynebacterium ammoniagenes; test: Antimicrobial activity against Brevibacterium ammoniagenes was determined; type: functional
Proteus vulgaris [15] = test: Inhibitory activity against Proteus vulgaris was determined; type: functional
Saccharomyces cerevisiae [16] = test: Antifungicidal activity against Saccharomyces cerevisiae was determined; type: functional
Cutibacterium acnes [17] = test: Antimicrobial activity against Propionibacterium acnes was determined; type: functional
Saccharomyces cerevisiae [18] = test: Inhibitory activity against Saccharomyces cerevisiae was determined; type: functional
Escherichia coli [19] = test: Antimicrobial activity against Escherichia coli was determined; type: functional
Streptococcus mutans [20] = test: Inhibitory activity against Streptococcus mutans was determined
Micrococcus luteus [21] = test: Inhibitory activity against Micrococcus luteus was determined
Klebsiella aerogenes [22] = test: Inhibitory activity against Enterobacter aerogenes was determined
Aspergillus niger [23] = test: Inhibitory activity against Aspergillus niger was determined; type: functional
Zygosaccharomyces bailii [24] = test: Antifungicidal activity against Zygosaccharomyces bailii was determined; type: functional
Staphylococcus aureus [25] = test: Inhibitory activity against Staphylococcus aureus (MRSA) was determined; type: functional
Salmonella enterica = test: Antimicrobial activity against Salmonella choleraesuis was determined; type: functional
Proteus vulgaris [26] = test: Antimicrobial activity against Proteus vulgaris was determined; type: functional
Pseudomonas aeruginosa [27] = test: Inhibitory activity against Pseudomonas aeruginosa was determined; type: functional
Candida albicans [28] = test: Inhibitory activity against Candida albicans was determined; type: functional
Zygosaccharomyces bailii [29] = test: Inhibitory activity against Zygosaccharomyces bailii was determined; type: functional
Klebsiella aerogenes [30] = test: Inhibitory activity against Enterobacter aerogenes was determined; type: functional
Staphylococcus aureus [31] = test: Inhibitory activity against Staphylococcus aureus was determined; type: functional
[32] = system: Corynebacterium ammoniagenes; test: Inhibitory activity against Brevibacterium ammoniagenes was determined; type: functional
Micrococcus luteus [33] = test: Inhibitory activity against Micrococcus luteus was determined; type: functional
Streptococcus mutans [34] = test: Inhibitory activity against Streptococcus mutans was determined; type: functional
Escherichia coli [35] = test: Inhibitory activity against Escherichia coli was determined; type: functional
Saccharomyces cerevisiae [36] = test: Minimum fungicidal concentration against Saccharomyces cerevisiae (Inactive); type: functional, organism-based

Compound `CC(C)=CCC/C(C)=C/COC(=O)c1cc(O)c(O)c(O)c1` [Geranyl gallate] has an MFC (Saccharomyces cerevisiae [1]) of 50 µg/mL (≈ 163 µM).

Work on `CCCCCCCCCC(=O)Oc1ccc(O)c(O)c1` yielded an MFC (Saccharomyces cerevisiae [1]) of 50 µg/mL (≈ 178 µM).

For `CCCCCCCOC(=O)/C=C/c1ccc(O)c(O)c1`, the MFC (Saccharomyces cerevisiae [1]) was 50 µg/mL (≈ 180 µM).

`CCCCCCCCCCCCOC(=O)c1cc(O)c(O)c(O)c1` [DODECYL GALLATE] showed an MBC (Bacillus subtilis) of 25 µg/mL (≈ 73.9 µM), an MIC (Staphylococcus aureus [2]) of 12.5 µg/mL (≈ 36.9 µM) and an MBC (Streptococcus mutans [3]) of 100 µg/mL (≈ 295 µM). For the same compound, the MFC (Candida albicans [4]) was greater than 400 µg/mL, the MFC (Aspergillus niger [5]) was greater than 400 µg/mL and the MIC [6] was 12.5 µg/mL (≈ 36.9 µM). The MIC (Cutibacterium acnes [7]) was 6.25 µg/mL (≈ 18.5 µM), the MBC (Staphylococcus aureus [8]) was 25 µg/mL (≈ 73.9 µM) and the MIC (Escherichia coli [9]) was greater than 800 µg/mL. It also gave an MBC (Pseudomonas aeruginosa [10]) greater than 800 µg/mL, an MBC (Staphylococcus aureus [11]) of 25 µg/mL (≈ 73.9 µM) and an MBC (Micrococcus luteus [12]) of 25 µg/mL (≈ 73.9 µM). The MBC (Klebsiella aerogenes [13]) was greater than 800 µg/mL, the MBC [14] was 25 µg/mL (≈ 73.9 µM) and the MIC (Proteus vulgaris [15]) was greater than 800 µg/mL. For the same compound, the MFC (Saccharomyces cerevisiae [16]) was greater than 1600 µg/mL, the MBC (Cutibacterium acnes [17]) was 6.25 µg/mL (≈ 18.5 µM) and the MFC (Saccharomyces cerevisiae [18]) was greater than 1600 µg/mL. It also gave an MBC (Escherichia coli [19]) greater than 800 µg/mL, an MIC (Streptococcus mutans [20]) of 100 µg/mL (≈ 295 µM) and an MIC (Micrococcus luteus [21]) of 12.5 µg/mL (≈ 36.9 µM). For the same compound, the MIC (Klebsiella aerogenes [22]) was greater than 800 µg/mL, the MFC (Aspergillus niger [23]) was greater than 400 µg/mL and the MFC (Zygosaccharomyces bailii [24]) was greater than 1600 µg/mL. It also gave an MIC (Staphylococcus aureus [25]) of 12.5 µg/mL (≈ 36.9 µM), an MBC (Salmonella enterica) of 50 µg/mL (≈ 148 µM) and an MBC (Proteus vulgaris [26]) greater than 800 µg/mL. For the same compound, the MIC (Pseudomonas aeruginosa [27]) was greater than 800 µg/mL, the MFC (Candida albicans [28]) was greater than 400 µg/mL and the MIC (Zygosaccharomyces bailii [29]) was greater than 1600 µg/mL.

With `CCCOC(=O)c1cc(O)c(O)c(O)c1` [PROPYL GALLATE] the MBC (Bacillus subtilis) was 1600 µg/mL (≈ 7540 µM), the MBC (Streptococcus mutans [3]) was 800 µg/mL (≈ 3770 µM) and the MFC (Candida albicans [4]) was greater than 3200 µg/mL. The MFC (Aspergillus niger [5]) was greater than 3200 µg/mL, the MIC (Cutibacterium acnes [7]) was 800 µg/mL (≈ 3770 µM) and the MBC (Staphylococcus aureus [8]) was 3200 µg/mL (≈ 15100 µM). It also gave an MIC (Klebsiella aerogenes [30]) of 3200 µg/mL (≈ 15100 µM), an MBC (Pseudomonas aeruginosa [10]) greater than 3200 µg/mL and an MBC (Staphylococcus aureus [11]) of 3200 µg/mL (≈ 15100 µM). The MBC (Micrococcus luteus [12]) was 3200 µg/mL (≈ 15100 µM), the MIC (Staphylococcus aureus [31]) was 1600 µg/mL (≈ 7540 µM) and the MBC (Klebsiella aerogenes [13]) was greater than 3200 µg/mL. It also gave an MBC [14] of 3200 µg/mL (≈ 15100 µM), an MIC (Proteus vulgaris [15]) of 400 µg/mL (≈ 1890 µM) and an MFC (Saccharomyces cerevisiae [16]) greater than 3200 µg/mL. The MBC (Cutibacterium acnes [17]) was 800 µg/mL (≈ 3770 µM), the MFC (Saccharomyces cerevisiae [18]) was 3200 µg/mL (≈ 15100 µM) and the MBC (Escherichia coli [19]) was 1600 µg/mL (≈ 7540 µM). It also gave an MFC (Aspergillus niger [23]) greater than 3200 µg/mL, an MFC (Zygosaccharomyces bailii [24]) greater than 3200 µg/mL and an MIC [32] of 1600 µg/mL (≈ 7540 µM). It also gave an MIC (Staphylococcus aureus [25]) of 1600 µg/mL (≈ 7540 µM), an MBC (Salmonella enterica) greater than 3200 µg/mL and an MIC (Micrococcus luteus [33]) of 1600 µg/mL (≈ 7540 µM). It also gave an MBC (Proteus vulgaris [26]) of 400 µg/mL (≈ 1890 µM), an MIC (Pseudomonas aeruginosa [27]) of 3200 µg/mL (≈ 15100 µM) and an MFC (Candida albicans [28]) of 3200 µg/mL (≈ 15100 µM). For the same compound, the MIC (Streptococcus mutans [34]) was 400 µg/mL (≈ 1890 µM), the MIC (Zygosaccharomyces bailii [29]) was greater than 3200 µg/mL and the MIC (Escherichia coli [35]) was 1600 µg/mL (≈ 7540 µM).

Work on `CCCCCCCCOC(=O)c1cc(O)c(O)c(O)c1` [OCTYL_GALLATE] yielded an MBC (Bacillus subtilis) of 25 µg/mL (≈ 88.5 µM), an MBC (Streptococcus mutans [3]) of 50 µg/mL (≈ 177 µM) and an MFC (Candida albicans [4]) of 25 µg/mL (≈ 88.5 µM). For the same compound, the MFC (Aspergillus niger [5]) was 100 µg/mL (≈ 354 µM), the MIC (Cutibacterium acnes [7]) was 25 µg/mL (≈ 88.5 µM) and the MBC (Staphylococcus aureus [8]) was 50 µg/mL (≈ 177 µM). The MIC (Klebsiella aerogenes [30]) was greater than 800 µg/mL, the MBC (Pseudomonas aeruginosa [10]) was greater than 800 µg/mL and the MBC (Staphylococcus aureus [11]) was 50 µg/mL (≈ 177 µM). For the same compound, the MBC (Micrococcus luteus [12]) was 25 µg/mL (≈ 88.5 µM), the MIC (Staphylococcus aureus [31]) was 25 µg/mL (≈ 88.5 µM) and the MBC (Klebsiella aerogenes [13]) was greater than 800 µg/mL. For the same compound, the MBC [14] was 50 µg/mL (≈ 177 µM), the MIC (Proteus vulgaris [15]) was 25 µg/mL (≈ 88.5 µM) and the MFC (Saccharomyces cerevisiae [16]) was 25 µg/mL (≈ 88.5 µM). For the same compound, the MBC (Cutibacterium acnes [17]) was 25 µg/mL (≈ 88.5 µM), the MFC (Saccharomyces cerevisiae [18]) was 25 µg/mL (≈ 88.5 µM) and the MBC (Escherichia coli [19]) was greater than 800 µg/mL. It also gave an MFC (Aspergillus niger [23]) of 50 µg/mL (≈ 177 µM), an MFC (Zygosaccharomyces bailii [24]) of 50 µg/mL (≈ 177 µM) and an MIC [32] of 25 µg/mL (≈ 88.5 µM). For the same compound, the MIC (Staphylococcus aureus [25]) was 25 µg/mL (≈ 88.5 µM), the MBC (Salmonella enterica) was 12.5 µg/mL (≈ 44.3 µM) and the MIC (Micrococcus luteus [33]) was 12.5 µg/mL (≈ 44.3 µM). For the same compound, the MBC (Proteus vulgaris [26]) was 50 µg/mL (≈ 177 µM), the MIC (Pseudomonas aeruginosa [27]) was greater than 800 µg/mL and the MFC (Candida albicans [28]) was 25 µg/mL (≈ 88.5 µM). The MIC (Streptococcus mutans [34]) was 50 µg/mL (≈ 177 µM), the MIC (Zygosaccharomyces bailii [29]) was 50 µg/mL (≈ 177 µM) and the MIC (Escherichia coli [35]) was greater than 800 µg/mL.

In the case of `CCCCCCCCOC(=O)c1cccc(O)c1O`, the MIC (Saccharomyces cerevisiae [36]) is reported as “inactive”.
